Assay type in all cases: biochemical
The target in one assay is T1, 5-lipoxygenase (Rattus norvegicus, UniProt P12527).
T1 construct: 20,000 g supernatant from 7.5 million homogenized RBL-1 cells; endogenous in cells; host or cells: RBL-1 cells, 20,000 g supernatant of homogenate
T1 sequence (P12527 1-673): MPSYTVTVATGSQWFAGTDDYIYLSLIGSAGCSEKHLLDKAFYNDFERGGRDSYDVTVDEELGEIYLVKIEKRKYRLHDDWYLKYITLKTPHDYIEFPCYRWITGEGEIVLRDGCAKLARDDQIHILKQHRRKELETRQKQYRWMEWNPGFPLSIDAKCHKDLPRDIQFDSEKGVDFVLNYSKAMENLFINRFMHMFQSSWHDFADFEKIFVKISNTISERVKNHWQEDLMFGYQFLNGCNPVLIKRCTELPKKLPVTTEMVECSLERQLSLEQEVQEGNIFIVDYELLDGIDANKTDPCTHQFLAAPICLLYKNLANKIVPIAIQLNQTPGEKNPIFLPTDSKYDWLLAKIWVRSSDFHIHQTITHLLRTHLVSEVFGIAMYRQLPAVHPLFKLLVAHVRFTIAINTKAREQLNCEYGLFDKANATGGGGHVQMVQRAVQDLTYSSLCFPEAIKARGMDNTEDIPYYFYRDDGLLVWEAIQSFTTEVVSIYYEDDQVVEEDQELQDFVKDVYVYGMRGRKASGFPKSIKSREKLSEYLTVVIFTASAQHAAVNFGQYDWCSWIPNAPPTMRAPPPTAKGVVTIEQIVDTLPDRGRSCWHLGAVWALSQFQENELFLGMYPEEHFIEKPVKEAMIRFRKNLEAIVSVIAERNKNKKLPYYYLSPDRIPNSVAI
Briefly: 5-lipoxygenase inhibition, 20,000 g supernatant from homogenized RBL-1 cells, radiolabeled arachidonic acid. As to conditions: for IC50: 5-lipoxygenase, RBL-1 supernatant, 50% intercept from linear regression of % inhibition vs log concentration. The procedure: (§1) The compounds of this invention are potent inhibitors of 5-, 12-, and 15-lipoxygenases. An assay to determine 5-lipoxygenase activity was performed in incubations containing various concentrations of the test compound and the 20,000 g supernatant from 7.5 million homogenized RBL-1 cells. Reactions were initiated by addition of radiolabeled arachidonic acid and terminated by acidification and ether extraction. Reaction products were separated from nonconverted substrate by thin layer chromatography and measured by liquid scintillation spectroscopy. Inhibition of 5-lipoxygenase activity was calculated as the 50% intercept from linear regression analysis of percentage inhibition versus log concentration plots.

The target of a further assay is T2, 12-lipoxygenase (Homo sapiens, UniProt P18054).
T2 construct: 12-lipoxygenase obtained from human platelets; from tissue; host or cells: human platelets
T2 sequence (P18054 1-663): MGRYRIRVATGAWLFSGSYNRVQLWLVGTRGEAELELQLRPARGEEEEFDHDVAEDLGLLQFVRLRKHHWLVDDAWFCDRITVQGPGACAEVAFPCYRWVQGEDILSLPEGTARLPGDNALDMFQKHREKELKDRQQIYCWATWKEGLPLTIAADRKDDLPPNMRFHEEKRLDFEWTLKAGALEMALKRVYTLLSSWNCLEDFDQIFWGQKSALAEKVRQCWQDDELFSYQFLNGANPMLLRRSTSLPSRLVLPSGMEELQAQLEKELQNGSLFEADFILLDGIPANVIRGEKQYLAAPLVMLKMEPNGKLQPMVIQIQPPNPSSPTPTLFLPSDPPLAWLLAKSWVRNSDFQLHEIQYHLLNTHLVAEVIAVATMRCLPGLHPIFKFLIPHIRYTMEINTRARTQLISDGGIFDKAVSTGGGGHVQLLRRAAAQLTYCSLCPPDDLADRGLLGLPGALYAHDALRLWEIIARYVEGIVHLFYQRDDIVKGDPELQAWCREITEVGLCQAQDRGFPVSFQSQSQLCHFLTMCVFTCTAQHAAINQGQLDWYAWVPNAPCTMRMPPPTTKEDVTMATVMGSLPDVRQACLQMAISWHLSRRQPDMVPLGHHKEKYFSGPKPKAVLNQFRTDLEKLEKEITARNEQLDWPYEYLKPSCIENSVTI
Briefly: 12-lipoxygenase inhibition, enzyme obtained from human platelets. As to conditions: read-out: Percent Inhibition, 12-Lipoxygenase. The procedure: as §1
(§2) Inhibitory activities of the compounds of this invention against 12- and 15-lipoxygenase can be determined in the foregoing assay in which 12-lipoxygenase obtained from human platelets, or 15-lipoxygenase obtained from soybean, is substituted for the […] containing cell supernatant fraction.

The target of another assay is T3, 15-lipoxygenase (Glycine max, UniProt P08170).
T3 construct: 15-lipoxygenase obtained from soybean; from tissue; host or cells: soybean
T3 sequence (P08170 1-839): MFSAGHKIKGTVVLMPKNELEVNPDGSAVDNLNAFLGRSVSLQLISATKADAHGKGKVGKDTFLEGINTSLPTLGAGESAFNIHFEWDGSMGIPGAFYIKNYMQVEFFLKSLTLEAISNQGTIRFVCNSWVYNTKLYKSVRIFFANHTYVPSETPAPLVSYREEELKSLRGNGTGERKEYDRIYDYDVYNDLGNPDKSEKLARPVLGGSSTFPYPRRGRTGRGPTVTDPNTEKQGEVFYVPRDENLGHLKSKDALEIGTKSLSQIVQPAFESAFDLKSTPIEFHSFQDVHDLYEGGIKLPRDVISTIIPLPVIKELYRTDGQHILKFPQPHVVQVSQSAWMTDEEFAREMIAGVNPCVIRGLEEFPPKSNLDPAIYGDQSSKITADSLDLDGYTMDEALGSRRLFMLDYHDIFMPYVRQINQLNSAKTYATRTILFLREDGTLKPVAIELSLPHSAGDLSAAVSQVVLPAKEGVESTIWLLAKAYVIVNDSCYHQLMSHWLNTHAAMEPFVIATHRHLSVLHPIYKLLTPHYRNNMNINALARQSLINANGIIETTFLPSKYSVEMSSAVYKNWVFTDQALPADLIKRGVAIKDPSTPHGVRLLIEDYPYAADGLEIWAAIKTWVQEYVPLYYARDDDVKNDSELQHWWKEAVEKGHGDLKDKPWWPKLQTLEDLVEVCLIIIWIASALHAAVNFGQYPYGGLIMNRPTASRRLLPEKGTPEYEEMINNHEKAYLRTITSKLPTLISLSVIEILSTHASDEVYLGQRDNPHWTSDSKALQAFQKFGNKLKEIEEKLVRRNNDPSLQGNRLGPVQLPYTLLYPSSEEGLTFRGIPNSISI
In words: 15-lipoxygenase inhibition, enzyme obtained from soybean. Conditions: read-out: Percent Inhibition, 15-lipoxygenase. How it is done:
as §1, §2

The text below walks through data of US4761403A, “Lipoxygenase inhibiting compounds” (Abbott Laboratories, priority 1986, dated 1988).

In turn, `O=c1ccc2ccccc2n1O` [Example 1, 1-hydroxyquinol-2-(1H)-one] yielded an IC50 against 5-lipoxygenase of 5.3 µM. For the same compound, at 12-lipoxygenase, the inhibition at 10 µM is 93% and the inhibition at 100 µM amounted to 98%. Further, on 15-lipoxygenase, the inhibition at 10 µM was 59% and the inhibition at 100 µM was determined as 95%.

As for `COC(=O)c1cc2ccccc2n(O)c1=O` [Example 2, 3-Carbomethoxy-1-hydroxyquinol-2(1H)-one], on 5-lipoxygenase, the IC50 turned out to be 24 µM. Further, at 12-lipoxygenase, the inhibition at 10 µM was found to be 66% and the inhibition at 100 µM was determined as 94%. For the same compound, at 15-lipoxygenase, the inhibition at 10 µM turned out to be 5% and the inhibition at 100 µM worked out at 14%.

Turning to `O=c1c(Br)cc2ccccc2n1O` [Example 3, 3-Bromo-1-hydroxyquinol-2-(1H)-one], at 5-lipoxygenase, 4.2 µM corresponded to half-maximal inhibition (IC50).

Regarding `Cc1cc(=O)n(O)c2ccccc12` [Example 4, 4-Methyl-1-hydroxyquinol-2(1H)-one], the IC50 on 5-lipoxygenase worked out at 1.4 µM.

`COc1ccc2c(c1)c(Cl)cc(=O)n2O` [Example 5, 4-Chloro-6-methoxy-1-hydroxyquinol-2(1H)-one] yielded an IC50 on 5-lipoxygenase of 1.6 µM.

On 5-lipoxygenase, `O=c1ccc2c([N+](=O)[O-])cccc2n1O` [Example 6, 5-Nitro-1-hydroxyquinol-2(1H)-one] returned an IC50 of 3.7 µM. The results for the inhibition at 10 µM on 12-lipoxygenase and at 15-lipoxygenase were 83% and 27%, respectively. The inhibition at 100 µM on 12-lipoxygenase and at 15-lipoxygenase was 98% in each case.

Consider `Cc1ccc2c(ccc(=O)n2O)c1[N+](=O)[O-]` [Example 7, 6-Methyl-5-nitro-1-hydroxyquinol-2(1H)-one], for which the IC50 against 5-lipoxygenase came to 2 µM.

On to `O=c1ccc2cc(Cl)ccc2n1O` [Example 8, 6-Chloro-1-hydroxyquinol-2(1H)-one], for which half-maximal inhibition on 5-lipoxygenase (IC50) required 0.87 µM. Moreover, on 12-lipoxygenase, the inhibition at 10 µM amounted to 95% and the inhibition at 100 µM came to 97%. At 15-lipoxygenase, the inhibition at 10 µM worked out at 95% and the inhibition at 100 µM came out at 100%.

Take `Cc1ccc2c(ccc(=O)n2O)c1` [Example 9, 6-Methyl-1-hydroxyquinol-2-(1H)-one]: the IC50 against 5-lipoxygenase is 1.1 µM.

In the case of `COc1ccc2c(ccc(=O)n2O)c1` [Example 10, 6-Methoxy-1-hydroxyquinol-2-(1H)-one], on 5-lipoxygenase, the IC50 was 1.5 µM. Besides, the values for the inhibition at 10 µM at 12-lipoxygenase and at 15-lipoxygenase were 90% and 62%, respectively. The figures for the inhibition at 100 µM on 12-lipoxygenase and at 15-lipoxygenase were 97% and 94%, respectively.

On 5-lipoxygenase, `O=c1ccc2cc([N+](=O)[O-])ccc2n1O` [Example 11, 6-Nitro-1-hydroxyquinol-2(1H)-one] came in with an IC50 of 14 µM. Besides, the figures for the inhibition at 10 µM on 12-lipoxygenase and on 15-lipoxygenase were 67% and 2%, respectively. Further, the inhibition at 100 µM at 12-lipoxygenase was 90%; on 15-lipoxygenase it was 32%.

Compound `O=c1ccc2c3ccccc3ccc2n1O` [Example 14, 5,6-Benzo-1-hydroxyquinol-2(1H)-one] registered an IC50 against 5-lipoxygenase of 0.84 µM.

Regarding `CC(C)c1cc2ccccc2n(O)c1=O` [Example 16, 3-Isopropyl-1-hydroxy-quinol-2(1H)--one], at 12-lipoxygenase, the inhibition at 10 µM turned out to be 93% and the inhibition at 100 µM came out at 98%. In addition, at 15-lipoxygenase, the inhibition at 10 µM was 40% and the inhibition at 100 µM worked out at 93%.

`O=c1c2ccccc2ccn1O` [Example 27, 2-hydroxyquinol-1(2H)-one]: the IC50 against 5-lipoxygenase worked out at 6 µM.

Consider `O=c1c2ccccc2cc(O)n1O` [Example 28, 2,3-Dihydroxyquinol-1(2H)-one], for which, at 5-lipoxygenase (@ 100 uM, read-out: percentage inhibition of 5-lipoxygenase), the inhibition at 100 µM amounted to 54%.

In turn, `Cc1cn(O)c(=O)c2ccccc12` [Example 32, 4-Methyl-2-hydroxy-quinol-1(2H)-one] came in with an IC50 on 5-lipoxygenase of 3.9 µM.

The compound `Cc1cccc2c(=O)n(O)ccc12` [Example 33, 5-Methyl-2-hydroxyquinol-2(1H)-one] displayed an IC50 at 5-lipoxygenase of 2.4 µM.

As for `O=c1c2ccccc2c(-c2ccccc2)c(-c2ccccc2)n1O` [Example 35], the IC50 against 5-lipoxygenase worked out at 1.5 µM.

By IC50 is commonly meant the concentration needed to halve the response being measured. Low values mean greater potency, high ones weaker potency. As a reminder, the inhibition is how much of the control response was suppressed.
